Measurements: ChEMBL document CHEMBL1201862, “PubChem BioAssay data set” (2004)
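Test compounds were applied to cells in 96-well plates for 48 hours at 5 doses. GI50 is the concentration that inhibits growth by half.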 Calls of active or inactive are those of the source. No stated cut-off is given here; in the data, active = GI50 up to about 1.1 µM and inactive = higher.

Legend:
Assay in all cases: DTP human tumour cell line panel, 48 h
HCT-116 = tested on: HCT-116
SK-OV-3 = tested on: SK-OV-3
NCI-H460 = tested on: NCI-H460
UACC-62 = tested on: UACC-62
COLO 205 = tested on: COLO 205
DMS-114 = tested on: DMS-114
EKVX = tested on: EKVX
TK-10 = tested on: TK-10
HT-29 = tested on: HT-29
RPMI-8226 = tested on: RPMI-8226
SNB-75 = tested on: SNB-75
OVCAR-3 = tested on: OVCAR-3
ACHN = tested on: ACHN
A549 = tested on: A549
NCI-H522 = tested on: NCI-H522
SF-295 = tested on: SF-295
IGROV-1 = tested on: IGROV-1

Measured: GI50

CC(C(=O)Oc1ccc2ccccc2c1-c1c(O)ccc2ccccc12)c1ccccc1 (stereo not given)
inactive: HCT-116 12.9 µM | SK-OV-3 15.4 µM | NCI-H460 13.7 µM | UACC-62 13 µM | COLO 205 17.1 µM | DMS-114 12.3 µM | EKVX 16.8 µM | TK-10 17.6 µM | HT-29 14.8 µM | RPMI-8226 15.3 µM | SNB-75 9.79 µM | OVCAR-3 12.6 µM | ACHN 13.7 µM | A549 13.6 µM | NCI-H522 > 10 µM | SF-295 12.7 µM | IGROV-1 17.1 µM

COc1ccccc1NC(=O)CC(=O)n1nc(-c2ccccc2)c(/N=N/c2ccccc2[N+](=O)[O-])c1-c1ccccc1
inactive: HCT-116 71.6 µM | SK-OV-3 > 100 µM | NCI-H460 > 100 µM | UACC-62 > 100 µM | COLO 205 95.5 µM | DMS-114 25.6 µM | EKVX 44.5 µM | TK-10 > 100 µM | HT-29 25.2 µM | RPMI-8226 74.5 µM | SNB-75 17.8 µM | OVCAR-3 69 µM | ACHN 32.2 µM | A549 > 100 µM | NCI-H522 > 100 µM | SF-295 > 100 µM | IGROV-1 > 100 µM

O=C(COc1ccc(Cl)cc1)N1N=C(c2ccc(Cl)cc2)CC1(O)c1ccccc1 (stereo not given)
inactive: HCT-116 12.6 µM | SK-OV-3 19.5 µM | NCI-H460 15.2 µM | UACC-62 15.9 µM | COLO 205 21 µM | DMS-114 18.4 µM | EKVX 30 µM | TK-10 26.7 µM | HT-29 12.9 µM | RPMI-8226 7.03 µM | SNB-75 29.9 µM | OVCAR-3 16.3 µM | ACHN 9.04 µM | A549 14.3 µM | NCI-H522 14.3 µM | SF-295 23.8 µM | IGROV-1 18.5 µM

Clc1ccc2c(c1)[nH]c1c2nc2sccn21
inactive: HCT-116 > 100 µM | SK-OV-3 > 100 µM | NCI-H460 > 100 µM | UACC-62 > 100 µM | COLO 205 > 100 µM | DMS-114 > 100 µM | EKVX > 100 µM | TK-10 > 100 µM | HT-29 > 100 µM | RPMI-8226 > 100 µM | SNB-75 28.6 µM | OVCAR-3 > 100 µM | ACHN > 100 µM | A549 > 100 µM | NCI-H522 > 100 µM | SF-295 > 100 µM | IGROV-1 > 100 µM

CCOc1ccc(/N=N/c2c(-c3ccccc3)nn(C(=O)CC(=O)Nc3cccc(C)c3)c2-c2ccccc2)cc1
inactive: HCT-116 58.5 µM | SK-OV-3 > 100 µM | NCI-H460 > 100 µM | UACC-62 > 100 µM | COLO 205 > 100 µM | DMS-114 30.4 µM | EKVX 38.1 µM | TK-10 > 100 µM | HT-29 22 µM | RPMI-8226 65.8 µM | SNB-75 27.9 µM | OVCAR-3 > 100 µM | ACHN 38.5 µM | A549 > 100 µM | NCI-H522 > 100 µM | SF-295 > 100 µM | IGROV-1 > 100 µM
